ChEMBL document CHEMBL1123366, “Antiinflammatory and aldose reductase inhibitory activity of some tricyclic arylacetic acids” (J Med Chem, 1986)

Assays:
Mus musculus = species on record: Mus musculus; assay: Analgesic activity in mice by mouse phenylquinone writhing assay relative to aspirin.; assay type: functional
Rattus norvegicus = species on record: Rattus norvegicus; assay: Inhibition of carrageenan-induced inflammation of rat paw relative to phenylbutazone.; assay type: functional

| SMILES | Activity (Mus musculus) | Activity (Rattus norvegicus) |
| --- | --- | --- |
| CC(C(=O)O)c1ccc2c(=O)c3ccccc3ccc2c1 (centres undefined) | 20 | 68 |
| O=C1Cc2ccc3c(c2O1)CCc1ccccc1C3=O | ~1 | 3 |
| O=C(O)Cc1cc(O)c2c(c1)CCc1ccccc1C2=O | 4 | ~20 |
| O=C(O)Cc1ccc2c(c1)CCc1cccc(O)c1C2=O | >=0.4 | <0.2 |
| O=C(O)Cc1ccc2c(c1)CCc1ccc(O)cc1C2=O | ~0.2 | <0.2 |
| O=C(O)Cc1ccc2c(c1)CCc1ccccc1C2=O | 1.5 | 7 |
| O=C(O)Cc1ccc2c(c1O)CCc1ccccc1C2=O | ~8 | 15 |
| O=C(O)Cc1ccc2c(c1)CCc1cc(O)ccc1C2=O | ~0.6 | ~0.4 |
| CC(C(=O)O)c1cc(O)c2c(=O)c3ccccc3ccc2c1 (centres undefined) | ~6 | ~30 |
| O=C(O)Cc1cc(O)c2c(=O)c3ccccc3ccc2c1 | ~1 | 5 |
| O=C(O)Cc1ccc2c(=O)c3ccccc3ccc2c1 | 2 | 6 |
| CC(C(=O)O)c1cc(O)c2c(c1)CCc1ccccc1C2=O (centres undefined) | 4 | ~60 |
| O=C(O)c1ccccc1Nc1cccc(C(F)(F)F)c1 [FLUFENAMIC ACID] | <0.4 | ~6 |
| COc1ccc2c(c1)c(CC(=O)O)c(C)n2C(=O)c1ccc(Cl)cc1 [INDOMETHACIN] | 60 | 16 |
| CC(C(=O)O)c1cccc(C(=O)c2ccccc2)c1 (centres undefined) [KETOPROFEN] | 60 | 9 |
| O=C(O)Cc1ccc2c(c1)OCc1ccccc1C2=O [OXEPINAC] | 4 | ~15 |
| O=C(O)Cc1ccc2c(c1)SCc1ccccc1C2=O [TIOPINAC] | 14 | 40 |
